Earlier results on 5 molecules are cited in patent US6949636B2, “Intron/exon structure of the human and mouse β3-adrenergic receptor genes” (Centre National de la Recherche Scientifique, priority 1989, dated 2005).

One data set deals with β3-adrenergic receptor (Homo sapiens, UniProt P13945). The conditions noted are these: activity increases in the order salbutamol, BRL 28410, BRL 37344, (1)-isoproterenol; from earlier filings.
Data set [1] deals with mouse β3-adrenergic receptor (Mus musculus, UniProt P25962). As to conditions: background statement, earlier filing / Nahmias et al.
mouse β3-adrenergic receptor, sequence (P25962 1-388 limits assumed): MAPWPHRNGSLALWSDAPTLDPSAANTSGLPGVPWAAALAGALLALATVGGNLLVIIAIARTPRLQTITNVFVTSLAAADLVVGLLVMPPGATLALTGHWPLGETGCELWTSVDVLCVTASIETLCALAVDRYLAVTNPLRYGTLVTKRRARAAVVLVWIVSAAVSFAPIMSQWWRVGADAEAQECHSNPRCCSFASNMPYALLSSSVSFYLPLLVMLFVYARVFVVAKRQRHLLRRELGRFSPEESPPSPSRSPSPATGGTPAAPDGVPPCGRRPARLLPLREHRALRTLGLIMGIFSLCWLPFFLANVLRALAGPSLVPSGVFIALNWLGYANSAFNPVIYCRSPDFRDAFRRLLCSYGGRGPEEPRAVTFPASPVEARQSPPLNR

β3-adrenergic receptor, sequence (P13945 1-402 limits assumed): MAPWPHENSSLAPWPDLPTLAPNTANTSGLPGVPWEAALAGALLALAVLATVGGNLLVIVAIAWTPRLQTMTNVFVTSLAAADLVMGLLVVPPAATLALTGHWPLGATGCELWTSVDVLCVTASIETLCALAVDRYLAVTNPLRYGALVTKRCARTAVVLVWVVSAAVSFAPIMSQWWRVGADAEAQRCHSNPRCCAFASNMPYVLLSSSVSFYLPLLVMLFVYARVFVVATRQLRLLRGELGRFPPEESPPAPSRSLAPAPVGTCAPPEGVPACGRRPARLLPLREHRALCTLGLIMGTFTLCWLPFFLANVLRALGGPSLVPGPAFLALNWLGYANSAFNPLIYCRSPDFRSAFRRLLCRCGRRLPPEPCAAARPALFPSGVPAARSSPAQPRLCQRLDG

Consider `CC(C)(C)NCC(O)c1ccc(O)c(CO)c1` (centres unmarked) [salbutamol], for which the “activating adenylate cyclase in the presence of an agonist” value on β3-adrenergic receptor is given as “activating adenylate cyclase”.

Regarding `C=CCOc1ccccc1OCC(O)CNC(C)C` (centres unmarked) [oxprenolol], in data set [1], the “activation of mouse β3-adrenergic receptor” value (shortened to “activation”) is reported as “can be activated”. As for `C[C@H](Cc1ccc(C(=O)O)cc1)NC[C@H](O)c1ccccc1` [BRL 28410], the “activating adenylate cyclase in the presence of an agonist” value on β3-adrenergic receptor is reported as “activating adenylate cyclase”.

Regarding `CC(C)(C)NCC(O)COc1cccc2[nH]c(=O)[nH]c12` (centres unmarked) [CGP 12177A], in data set [1], the “activation” value is listed as “can be activated”. Regarding `CC(C)NCC(O)COc1cccc2[nH]ccc12` (centres unmarked) [pindolol], in data set [1], the “activation” value is listed as “can be activated”.
